We go through one compound from patent US20250361230A1, “LATS Inhibitors and Uses Thereof” (The USA, as Represented by the Secretary, Dept. of Heath …, priority 2022, published 2025).

As usually defined, the IC50 is the concentration that inhibits the measured activity by half.

One assay has as its target T1, LATS1 (Homo sapiens, UniProt O95835).
T1 sequence (O95835 1-1130): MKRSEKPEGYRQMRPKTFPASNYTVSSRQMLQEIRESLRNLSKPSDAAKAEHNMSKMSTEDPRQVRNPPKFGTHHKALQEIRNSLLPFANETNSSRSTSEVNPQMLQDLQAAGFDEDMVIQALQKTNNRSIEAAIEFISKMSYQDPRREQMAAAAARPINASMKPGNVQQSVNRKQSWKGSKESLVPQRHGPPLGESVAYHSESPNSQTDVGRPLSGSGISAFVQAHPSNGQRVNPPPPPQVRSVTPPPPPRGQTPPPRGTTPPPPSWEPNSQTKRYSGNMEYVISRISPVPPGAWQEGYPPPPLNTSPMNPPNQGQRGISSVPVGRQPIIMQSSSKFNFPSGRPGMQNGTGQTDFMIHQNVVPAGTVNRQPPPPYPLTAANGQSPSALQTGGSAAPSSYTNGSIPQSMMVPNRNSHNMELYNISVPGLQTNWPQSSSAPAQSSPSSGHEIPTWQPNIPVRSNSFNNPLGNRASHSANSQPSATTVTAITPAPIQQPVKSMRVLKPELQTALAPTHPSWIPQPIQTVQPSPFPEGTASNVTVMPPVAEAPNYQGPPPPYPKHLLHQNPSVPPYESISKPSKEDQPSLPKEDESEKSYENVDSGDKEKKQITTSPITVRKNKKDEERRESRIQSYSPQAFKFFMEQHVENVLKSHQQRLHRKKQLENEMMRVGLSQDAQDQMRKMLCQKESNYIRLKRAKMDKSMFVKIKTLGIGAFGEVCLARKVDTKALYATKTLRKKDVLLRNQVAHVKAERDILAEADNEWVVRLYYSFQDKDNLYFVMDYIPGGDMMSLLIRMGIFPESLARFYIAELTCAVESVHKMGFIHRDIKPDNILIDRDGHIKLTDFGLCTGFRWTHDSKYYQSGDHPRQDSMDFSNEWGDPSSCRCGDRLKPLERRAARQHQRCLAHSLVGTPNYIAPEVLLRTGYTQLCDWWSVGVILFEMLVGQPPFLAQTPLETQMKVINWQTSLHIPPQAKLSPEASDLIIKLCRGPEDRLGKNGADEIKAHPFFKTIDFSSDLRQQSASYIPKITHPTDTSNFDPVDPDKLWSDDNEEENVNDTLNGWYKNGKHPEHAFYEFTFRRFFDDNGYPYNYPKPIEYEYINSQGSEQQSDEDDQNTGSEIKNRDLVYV
The assay can be described thus: RBC HotSpot kinase assay (33P-ATP, P81 filter-binding), LATS1. The format is biochemical. Particulars: biochemical kinase inhibition; read-out: LATS1 IC50. The procedure, abridged: (§1)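 Kinase in Hepes pH 7.5 buffer with Mg2+, EGTA, Brij35, BSA, vanadate, DTT and 1% DMSO, plus required cofactors and substrate, was preincubated 20 min at room temperature with compound. Reaction was started with 33P-ATP and run 2 h, then detected by P81 filter binding. IC50 (nM) came from 10-point singlet curves.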

The target of a further assay is T2, LATS2 (Homo sapiens, UniProt Q9NRM7).
T2 sequence (Q9NRM7 1-1088): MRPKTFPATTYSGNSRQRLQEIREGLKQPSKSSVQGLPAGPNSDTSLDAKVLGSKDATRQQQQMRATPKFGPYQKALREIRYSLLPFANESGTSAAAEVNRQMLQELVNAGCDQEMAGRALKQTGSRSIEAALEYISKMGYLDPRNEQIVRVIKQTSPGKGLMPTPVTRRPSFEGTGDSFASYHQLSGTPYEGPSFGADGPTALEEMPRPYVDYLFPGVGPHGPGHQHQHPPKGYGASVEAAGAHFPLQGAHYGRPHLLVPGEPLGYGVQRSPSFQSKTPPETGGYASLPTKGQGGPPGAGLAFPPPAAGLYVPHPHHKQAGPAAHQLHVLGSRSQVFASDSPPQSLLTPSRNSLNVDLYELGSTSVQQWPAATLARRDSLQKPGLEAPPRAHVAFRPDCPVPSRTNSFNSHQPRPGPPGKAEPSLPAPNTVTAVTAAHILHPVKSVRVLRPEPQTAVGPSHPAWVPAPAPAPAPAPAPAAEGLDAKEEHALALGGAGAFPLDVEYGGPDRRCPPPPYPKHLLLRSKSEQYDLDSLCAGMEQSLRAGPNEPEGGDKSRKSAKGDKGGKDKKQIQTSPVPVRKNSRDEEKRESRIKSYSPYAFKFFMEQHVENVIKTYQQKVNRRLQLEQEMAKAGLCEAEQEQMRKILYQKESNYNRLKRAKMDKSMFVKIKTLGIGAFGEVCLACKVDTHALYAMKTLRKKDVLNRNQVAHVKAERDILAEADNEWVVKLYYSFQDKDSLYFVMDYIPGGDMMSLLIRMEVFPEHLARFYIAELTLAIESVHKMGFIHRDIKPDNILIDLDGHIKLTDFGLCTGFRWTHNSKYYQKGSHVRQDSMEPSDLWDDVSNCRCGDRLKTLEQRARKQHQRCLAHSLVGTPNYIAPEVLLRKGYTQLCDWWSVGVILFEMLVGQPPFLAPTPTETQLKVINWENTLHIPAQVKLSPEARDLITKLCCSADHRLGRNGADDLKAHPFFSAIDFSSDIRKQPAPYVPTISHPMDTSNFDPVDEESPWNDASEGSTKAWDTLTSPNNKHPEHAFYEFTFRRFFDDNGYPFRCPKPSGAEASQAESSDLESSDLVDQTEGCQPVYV
The experiment in a line: RBC HotSpot kinase assay (33P-ATP, P81 filter-binding), LATS2. The format is biochemical. The following applies: biochemical kinase inhibition; read-out: LATS2 IC50. The method in brief: as §1

Regarding `Cc1cc(-c2ccnc3[nH]cc(C#N)c23)ccc1[C@@]1(O)[C@H](C)CN(C2CCS(=O)(=O)CC2)C[C@@H]1C` [Compound 2003, 4-(4-((3S,4s,5R)-1-(1,1-dioxidotetrahydro-2H-thiopyran-4-yl)-4-hydroxy-3,5-dimethylpiperidin-4-yl)-3-methylphenyl)-1H-pyrrolo[2,3-b]pyridine-3-carbonitrile], the IC50 on LATS1 came out at 5.6 nM; on LATS2, 2.6 nM.
